Columns and labels:
Candida krusei ATCC 6258 = test: In vitro antifungal activity (MIC), NCCLS method; format: cell-based; details: 48 hours
Procedure, shortened: (§1)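 Two-fold dilutions, final inoculum 5×10^2–2.5×10^3 cell/mL, NCCLS protocol; 48 h culture for these strains. MIC = minimum inhibitory concentration.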

[1] = tested on: Aspergillus fumigatus ATCC 16424; test: In vitro antifungal activity (MIC), NCCLS method; format: cell-based; details: 48 hours
Procedure, shortened: as §1

[2] = tested on: Candida albicans A207 (clinical isolate); test: In vitro antifungal activity (MIC), NCCLS method; format: cell-based; details: 48 hours
Procedure, shortened: (§2)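 Broth microdilution per NCCLS: two-fold serial dilutions of test compound inoculated with fungal suspension at a final 5×10^2 to 2.5×10^3 cell/mL. Strains other than Cryptococcus neoformans were incubated 48 hours before MIC reading.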

[3] = tested on: Candida albicans ATCC 10231; test: In vitro antifungal activity (MIC), NCCLS method; format: cell-based; details: 48 hours
Procedure, shortened: as §1

[4] = tested on: Candida tropicalis ATCC 13803; test: In vitro antifungal activity (MIC), NCCLS method; format: cell-based; details: 48 hours
Procedure, shortened: as §1

[5] = tested on: Cryptococcus neoformans ATCC 36556; test: In vitro antifungal activity (MIC), NCCLS method; format: cell-based; details: RPMI 1640 medium, 72 hours
Procedure, shortened: as §2

[6] = tested on: Mucor ramosissimus ATCC 90286; test: In vitro antifungal activity (MIC), NCCLS method; format: cell-based; details: 48 hours
Procedure, shortened: as §1

[7] = tested on: Aspergillus flavus ATCC 64025; test: In vitro antifungal activity (MIC), NCCLS method; format: cell-based; details: 48 hours
Procedure, shortened: as §1

[8] = tested on: Candida lusitaniae ATCC 42720; test: In vitro antifungal activity (MIC), NCCLS method; format: cell-based; details: 48 hours
Procedure, shortened: as §1

[9] = tested on: Aspergillus terreus ATCC 46941; test: In vitro antifungal activity (MIC), NCCLS method; format: cell-based; details: 48 hours
Procedure, shortened: as §1

[10] = tested on: Candida parapsilosis ATCC 34136; test: In vitro antifungal activity (MIC), NCCLS method; format: cell-based; details: Candida parapsilosis ATCC 34136; 48 hours
Procedure, shortened: as §1

[11] = tested on: Candida glabrata ATCC 48435; test: In vitro antifungal activity (MIC), NCCLS method; format: cell-based; details: Candida glabrata ATCC 48435; 48 hours
Procedure, shortened: as §1

[12] = target: T1, chitin synthase 2 of Saccharomyces cerevisiae ECY38-38A(pAS6) (Saccharomyces cerevisiae, UniProt P14180); test: In vitro enzyme assay for chitin synthase 2 of Saccharomyces cerevisiae (enzyme 2); format: biochemical; details: relative to polyoxin D (50% inhibitory activity = value 5)
T1 construct: made in house; host or cells: Saccharomyces cerevisiae ECY38-38A (chs1-23 chs2::LEU2 cal1/csd2) carrying plasmid pAS6, grown in galactose medium; 130,000 x g membrane pellet
T1 sequence (P14180 whole entry): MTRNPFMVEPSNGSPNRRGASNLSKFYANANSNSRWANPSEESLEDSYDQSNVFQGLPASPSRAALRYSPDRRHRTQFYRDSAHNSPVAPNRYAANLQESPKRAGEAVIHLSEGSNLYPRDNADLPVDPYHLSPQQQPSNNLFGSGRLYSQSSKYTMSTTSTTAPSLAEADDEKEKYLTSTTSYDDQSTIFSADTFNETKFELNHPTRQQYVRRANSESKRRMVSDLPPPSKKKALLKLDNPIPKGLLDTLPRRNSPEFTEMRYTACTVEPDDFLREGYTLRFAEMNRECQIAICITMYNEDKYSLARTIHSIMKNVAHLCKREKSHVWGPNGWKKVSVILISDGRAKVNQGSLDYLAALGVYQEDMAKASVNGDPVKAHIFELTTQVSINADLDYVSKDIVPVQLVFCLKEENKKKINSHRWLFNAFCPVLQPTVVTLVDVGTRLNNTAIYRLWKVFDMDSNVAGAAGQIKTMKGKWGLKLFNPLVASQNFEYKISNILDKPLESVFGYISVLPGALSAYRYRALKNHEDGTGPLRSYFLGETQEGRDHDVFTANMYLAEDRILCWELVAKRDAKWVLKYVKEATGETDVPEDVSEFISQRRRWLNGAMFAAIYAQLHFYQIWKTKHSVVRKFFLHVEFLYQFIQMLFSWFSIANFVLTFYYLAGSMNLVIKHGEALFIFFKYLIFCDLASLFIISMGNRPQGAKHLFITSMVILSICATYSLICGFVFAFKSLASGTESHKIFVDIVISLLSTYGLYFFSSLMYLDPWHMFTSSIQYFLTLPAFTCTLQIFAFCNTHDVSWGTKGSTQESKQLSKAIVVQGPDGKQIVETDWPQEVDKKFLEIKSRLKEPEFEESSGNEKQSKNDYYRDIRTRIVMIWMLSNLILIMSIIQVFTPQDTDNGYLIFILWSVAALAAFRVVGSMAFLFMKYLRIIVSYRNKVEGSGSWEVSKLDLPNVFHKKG
Procedure, shortened: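 Values are scores: 5 means 50% inhibition at the same concentration as polyoxin D, lower scores 2- to 16-fold higher concentration, higher scores ½ to ⅛. Radiolabel from 1.1 mM UDP-[14C]-GlcNAc was incorporated into TCA-insoluble chitin over 90 min at 30 °C (pH 7.5 Tris, 2 mM Co2+). The enzyme was a trypsin-activated membrane fraction from CHS2-only S. cerevisiae ECY38-38A(pAS6).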

human pathogenic fungi = test: Antifungal activity against human pathogenic fungi (summary statements); format: cell-based
Description: Candida albicans ATCC 10231, Candida lusitaniae ATCC 42720, Candida krusei ATCC 6258, Candida tropicalis ATCC 13803, Candida glabrata ATCC 48435, Candida parapsilosis ATCC 34136, Cryptococcus neoformans ATCC 36556, Aspergillus fumigatus ATCC 16424, Aspergillus flavus ATCC 64025, Aspergillus terreus ATCC 46941 and Mucor ramosissimus ATCC 90286 strains for the MIC (minimum inhibitory concentration) measurement were obtained from ATCC (American Type Culture Collection) in the U.S. The Candida albicans A207(clinical isolate) strain was used by isolating it from the patients.
The determination of MIC was performed according to the NCCLS (National Committee for Clinical Laboratory Standard) method. Each test sample solution was diluted two-fold and inoculated with a fungal suspension to reach a final inoculum size of 5×10^2 to 2.5×10^3 cell/mL. The Cryptococcus neoformans strain was cultured in the RPMI 1640 medium for 72 hours. Other strains were cultured for 48 hours.

chitin synthases = test: Inhibitory activity against the chitin synthases (summary statements); format: biochemical
Description: The inhibitory activities against the chitin synthase 1 of Candida albicans chs2 Δ chs 3 Δ (abbreviated as ‘enzyme 1’) and the chitin synthase 2 of Saccharomyces cerevisiae ECY38-38A(pAS6)(abbreviated as ‘enzyme 2’) was examined for compound Nos. 1 to 70 compound and polyoxin D, a positive control compound.
The inhibitory activity against the chitin synthase 1 prepared from Candida albicans and the chitin synthase 2 prepared from Saccharomyces cerevisiae were examined as follows. A reaction mixture containing 32 mM Tris-HCl (pH 7.5), 2 mM cobalt acetate, 1.1 mM UDP-[U-^14C]-N-acetyl-d-glucosamine (GlcNAc) (400,000 cpm/μmol), 2 μL of trypsin (0.75 mg/mL), 20 μL of each crude enzyme and 14 μL of each test sample was kept at 30° C. for 15 minutes to activate the enzyme. Then, 2 μL of trypsin inhibitor (1.5 mg/mL) was added and the mixture was kept in an ice bath for 10 minutes to deactivate trypsin. 2 μL of 0.8 M N-acetyl-d-glucosamine was added to a total volume of 50 μL and reaction was performed at 30° C. for 90 minutes. The reaction was stopped using 1 mL of 10% TCA solution and the reaction solution was filtered with a GF/C filter and dried at room temperature. After adding 3 mL of a scintillation cocktail solution, the amount of isotopes was measured using a liquid scintillation counter. Percentage inhibition against each enzyme was calculated by the following Equation 1.

[13] = target: T2, chitin synthase 1 of Candida albicans chs2 Δ chs 3 Δ (Candida albicans, UniProt P23316); test: In vitro enzyme assay for chitin synthase 1 of Candida albicans (enzyme 1); format: biochemical; details: relative to polyoxin D (50% inhibitory activity = value 5)
T2 construct: Crude enzyme was prepared using the Candida albicans chs2 Δ chs 3 Δ mutant; endogenous in cells; host or cells: Candida albicans chs2Δ/chs2Δ chs3Δ/chs3Δ mutant; 130,000 x g membrane pellet
T2 sequence (P23316 whole entry, stated change not applied): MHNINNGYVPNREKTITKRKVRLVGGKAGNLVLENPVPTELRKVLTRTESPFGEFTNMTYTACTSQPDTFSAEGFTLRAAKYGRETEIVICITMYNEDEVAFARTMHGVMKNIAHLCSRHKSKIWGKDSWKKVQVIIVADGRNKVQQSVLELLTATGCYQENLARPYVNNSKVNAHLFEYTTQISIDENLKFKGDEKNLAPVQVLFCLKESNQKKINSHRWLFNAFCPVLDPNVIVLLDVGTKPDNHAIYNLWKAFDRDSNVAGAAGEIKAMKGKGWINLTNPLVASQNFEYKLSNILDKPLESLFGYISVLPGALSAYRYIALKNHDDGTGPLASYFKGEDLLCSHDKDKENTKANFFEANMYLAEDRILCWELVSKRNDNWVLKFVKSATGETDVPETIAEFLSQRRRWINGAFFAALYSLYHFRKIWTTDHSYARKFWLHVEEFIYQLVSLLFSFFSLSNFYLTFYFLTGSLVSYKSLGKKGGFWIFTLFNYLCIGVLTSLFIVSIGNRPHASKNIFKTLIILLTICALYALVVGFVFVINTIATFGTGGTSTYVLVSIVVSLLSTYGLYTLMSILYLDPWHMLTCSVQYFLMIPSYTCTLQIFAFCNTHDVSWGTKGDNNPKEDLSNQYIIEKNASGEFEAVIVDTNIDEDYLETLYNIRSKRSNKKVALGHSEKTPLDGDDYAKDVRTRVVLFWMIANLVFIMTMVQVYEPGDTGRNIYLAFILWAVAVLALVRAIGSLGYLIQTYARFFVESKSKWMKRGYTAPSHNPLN
Procedure, shortened: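 Trypsin-activated crude membrane chitin synthase 1 from C. albicans chs2Δ chs3Δ was incubated 90 min at 30 °C with 1.1 mM UDP-[14C]GlcNAc and 2 mM cobalt acetate in Tris-HCl pH 7.5. Filtered TCA precipitate was counted by scintillation; values are scores 1–8 against polyoxin D (5 = same concentration).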

| Substance | MIC (minimum inhibitory concentration) (Candida krusei ATCC 6258) [µg/mL] | MIC (minimum inhibitory concentration) [1] [µg/mL] | MIC (minimum inhibitory concentration) [2] [µg/mL] | MIC (minimum inhibitory concentration) [3] [µg/mL] | MIC (minimum inhibitory concentration) [4] [µg/mL] | MIC (minimum inhibitory concentration) [5] [µg/mL] | MIC (minimum inhibitory concentration) [6] [µg/mL] | MIC (minimum inhibitory concentration) [7] [µg/mL] | MIC (minimum inhibitory concentration) [8] [µg/mL] | MIC (minimum inhibitory concentration) [9] [µg/mL] | MIC (minimum inhibitory concentration) [10] [µg/mL] | MIC (minimum inhibitory concentration) [11] [µg/mL] | Relative activity Enzyme 2 [12] | antifungal activities compared with amphotericin B (in words) (human pathogenic fungi) | inhibitory activities against the chitin synthases (in words) (chitin synthases) | Relative activity Enzyme 1 [13] |
| --- | --- | --- | --- | --- | --- | --- | --- | --- | --- | --- | --- | --- | --- | --- | --- | --- |
| 13-(4-Isopropylbenzyl)-9-O-propylberberrubine iodide [Compound No. 17] | 2 | 4 | 1 | 1 | 0.5 | 2 | 4 | 8 | 2 | 8 | 4 | 4 | 7 (compounds having the inhibitory activity at ½, ¼ and ⅛ lower concentrations than that of polyoxin D were given the values of 6, 7 and 8, respectively) | comparable to that of amphotericin B | exceptionally superior inhibitory activities | 4 (Compounds having the inhibitory activity at 2-fold, 4-fold, 8-fold and 16-fold higher concentrations than that of polyoxin D were given the values of 4, 3, 2 and 1, respectively) |
| 13-(4-tert-Butylbenzyl)-9-O-propylberberrubine chloride [Compound No. 39] | 2 | 4 | 1 | 1 | 0.5 | 2 | 4 | 8 | 1 | 8 | 4 | 4 | 7 (compounds having the inhibitory activity at ½, ¼ and ⅛ lower concentrations than that of polyoxin D were given the values of 6, 7 and 8, respectively) | comparable to that of amphotericin B | exceptionally superior inhibitory activities | 4 (Compounds having the inhibitory activity at 2-fold, 4-fold, 8-fold and 16-fold higher concentrations than that of polyoxin D were given the values of 4, 3, 2 and 1, respectively) |
| 13-(4-Isopropylbenzyl)-9-O-propylberberrubine chloride [Compound No. 49] | 2 | 4 | 1 | 1 | 0.5 | 2 | 4 | 8 | 1 | 8 | 4 | 4 | 7 (compounds having the inhibitory activity at ½, ¼ and ⅛ lower concentrations than that of polyoxin D were given the values of 6, 7 and 8, respectively) | comparable to that of amphotericin B | exceptionally superior inhibitory activities | 4 (Compounds having the inhibitory activity at 2-fold, 4-fold, 8-fold and 16-fold higher concentrations than that of polyoxin D were given the values of 4, 3, 2 and 1, respectively) |
| 13-(4-Isopropylbenzyl)-9-O-butylberberrubine iodide [Compound No. 18] | 1 | 2 | 0.5 | 0.5 | 0.25 | 1 | 4 | 8 | 1 | 8 | 4 | 4 | 7 (compounds having the inhibitory activity at ½, ¼ and ⅛ lower concentrations than that of polyoxin D were given the values of 6, 7 and 8, respectively) | comparable to that of amphotericin B | exceptionally superior inhibitory activities | 4 (Compounds having the inhibitory activity at 2-fold, 4-fold, 8-fold and 16-fold higher concentrations than that of polyoxin D were given the values of 4, 3, 2 and 1, respectively) |

Source: patent US7915276B2, “Berberrubine derivatives having antifungal activities” (priority 2006, dated 2011)
